In patent publication US9532990B2 (Zhejiang DTRM Biopharma Co. Ltd., priority 2014, dated 2017):

Target: BTK wild type (Homo sapiens (Human), UniProt Q06187)
Assay: Inhibition assay of BTK kinase activity (HTRF)
Assay type: biochemical
Conditions: all compounds with IC50 of less 10 nM; read-out: IC50 (BTK)
Description: Inhibition Assay of BTK Kinase Activity:
The enzyme reaction mixture of BTK wild type standard HTRF assay contained 1 nM BTK wild type, 1 μM biotin-TK1 peptide, and 30 μM ATP in a buffer. The enzyme reaction were carried out at room temperature for 60 minutes. […] The plates were incubated at room temperature for 60 minutes and then read in the Envision plate reader.

Chain of BTK wild type (Q06187 whole entry): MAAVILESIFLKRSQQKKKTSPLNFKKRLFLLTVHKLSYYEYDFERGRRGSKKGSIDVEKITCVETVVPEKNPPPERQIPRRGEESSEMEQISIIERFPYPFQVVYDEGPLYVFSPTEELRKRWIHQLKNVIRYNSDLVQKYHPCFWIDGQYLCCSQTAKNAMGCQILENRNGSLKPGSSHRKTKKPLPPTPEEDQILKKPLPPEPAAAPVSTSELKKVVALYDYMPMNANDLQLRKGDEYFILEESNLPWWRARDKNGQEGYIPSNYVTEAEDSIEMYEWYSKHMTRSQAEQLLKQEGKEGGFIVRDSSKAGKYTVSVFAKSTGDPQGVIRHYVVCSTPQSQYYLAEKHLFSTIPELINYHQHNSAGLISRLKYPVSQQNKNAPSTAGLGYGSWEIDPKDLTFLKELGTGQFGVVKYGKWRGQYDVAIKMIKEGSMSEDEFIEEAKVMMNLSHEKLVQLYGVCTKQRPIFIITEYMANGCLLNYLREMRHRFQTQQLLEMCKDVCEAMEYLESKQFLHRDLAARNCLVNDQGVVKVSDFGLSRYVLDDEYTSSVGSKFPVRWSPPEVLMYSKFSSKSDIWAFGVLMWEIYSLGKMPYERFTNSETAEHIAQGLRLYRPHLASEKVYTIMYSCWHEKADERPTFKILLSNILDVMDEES

With `COC(=O)NC(=O)/C=C\C(=O)N1CCCC(n2nc(-c3ccc(Oc4c(F)c(F)cc(F)c4F)cc3F)c3c(N)ncnc32)C1` (stereo not shown) [Compound 47, (Z)-methyl 4-(3-(4-amino-3-(2-fluoro-4-(2,3,5,6-tetrafluorophenoxy)phenyl)-1H-pyrazolo[3,4-d]pyrimidin-1-yl)piperidin-1-yl)-4-oxobut-2-enoylcarbamate] the IC50 was less than 10 nM.

Same assay, conditions: read-out: BTK IC50

Compared with `C=CC(=O)N[C@@H]1CC[C@@H](n2nc(-c3ccc(Oc4c(F)c(F)cc(F)c4F)cc3F)c3c(N)ncnc32)C1` [Compound 25, N-((1r,3r)-3-(4-amino-3-(2-fluoro-4-(2,3,5,6-tetrafluorophenoxy)phenyl)-1H-pyrazolo[3,4-d]pyrimidin-1-yl)cyclopentyl)acrylamide], `C=CC(=O)N[C@H]1CC[C@@H](n2nc(-c3ccc(Oc4c(F)c(F)cc(F)c4F)cc3F)c3c(N)ncnc32)C1` [Compound 26, N-((1s,3r)-3-(4-amino-3-(2-fluoro-4-(2,3,5,6-tetrafluorophenoxy)phenyl)-1H-pyrazolo[3,4-d]pyrimidin-1-yl)cyclopentyl)acrylamide] is 2-fold higher in IC50: 17 nM for the first, 34 nM for the second.

Going from `C=CC(=O)N1CCC(n2nc(-c3ccc(Oc4c(F)c(F)cc(F)c4F)cc3F)c3c(N)ncnc32)CC1` [Compound 27, 1-(4-(4-amino-3-(2-fluoro-4-(2,3,5,6-tetrafluorophenoxy)phenyl)-1H-pyrazolo[3,4-d]pyrimidin-1-yl)piperidin-1-yl)prop-2-en-1-one] to `C=CC(=O)N1CCC[C@H](n2nc(-c3ccc(Oc4c(F)c(F)cc(F)c4F)cc3F)c3c(N)ncnc32)C1` [Compound 34, 1-((S)-3-(4-amino-3-(2-fluoro-4-(2,3,5,6-tetrafluorophenoxy)phenyl)-1H-pyrazolo[3,4-d]pyrimidin-1-yl)piperidin-1-yl)prop-2-en-1-one], the IC50 falls from 223 nM to 23 nM (9.7-fold). The second is the more potent here.

Going from `C=CC(=O)NCC1CCC(n2nc(-c3ccc(Oc4c(F)c(F)cc(F)c4F)cc3F)c3c(N)ncnc32)C1` (stereo not shown) [Compound 28, N-((3-(4-amino-3-(2-fluoro-4-(2,3,5,6-tetrafluorophenoxy)phenyl)-1H-pyrazolo[3,4-d]pyrimidin-1-yl)cyclopentyl)methyl)acrylamide] to `C=CC(=O)NC1CCC(Cn2nc(-c3ccc(Oc4c(F)c(F)cc(F)c4F)cc3F)c3c(N)ncnc32)C1` (stereo not shown) [Compound 32, N-(3-((4-amino-3-(2-fluoro-4-(2,3,5,6-tetrafluorophenoxy)phenyl)-1H-pyrazolo[3,4-d]pyrimidin-1-yl)methyl)cyclopentyl)acrylamide], the IC50 rises from 7 nM to 7220 nM (1000-fold).

Going from `C=CC(=O)N1CCC(Cn2nc(-c3ccc(Oc4c(F)c(F)cc(F)c4F)cc3F)c3c(N)ncnc32)C1` (stereo not shown) [Compound 29, 1-(3-((4-amino-3-(2-fluoro-4-(2,3,5,6-tetrafluorophenoxy)phenyl)-1H-pyrazolo[3,4-d]pyrimidin-1-yl)methyl)pyrrolidin-1-yl)prop-2-en-1-one] to `C=CC(=O)N1CCCC(Cn2nc(-c3ccc(Oc4c(F)c(F)cc(F)c4F)cc3F)c3c(N)ncnc32)C1` (stereo not shown) [Compound 31, 1-(3-((4-amino-3-(2-fluoro-4-(2,3,5,6-tetrafluorophenoxy)phenyl)-1H-pyrazolo[3,4-d]pyrimidin-1-yl)methyl)piperidin-1-yl)prop-2-en-1-one], the IC50 falls from 26 nM to 15 nM (1.7-fold). The second is the more potent here.

Going from `C=CC(=O)N1CCC(Cn2nc(-c3ccc(Oc4c(F)c(F)cc(F)c4F)cc3F)c3c(N)ncnc32)CC1` [Compound 30, 1-(4-((4-amino-3-(2-fluoro-4-(2,3,5,6-tetrafluorophenoxy)phenyl)-1H-pyrazolo[3,4-d]pyrimidin-1-yl)methyl)piperidin-1-yl)prop-2-en-1-one] to `CNC(=O)N1CCCC(n2nc(-c3ccc(Oc4c(F)c(F)cc(F)c4F)cc3F)c3c(N)ncnc32)C1` (stereo not shown) [Compound 52, 3-(4-amino-3-(2-fluoro-4-(2,3,5,6-tetrafluorophenoxy)phenyl)-1H-pyrazolo[3,4-d]pyrimidin-1-yl)-N-methylpiperidine-1-carboxamide], the IC50 rises from 24 nM to 60 nM (2.5-fold).

Compared with `Nc1ncnc2c1c(-c1ccc(Oc3c(F)c(F)cc(F)c3F)cc1F)nn2C1CCCC(N2C(=O)C=CC2=O)C1` (stereo not shown) [Compound 36, 1-(3-(4-amino-3-(2-fluoro-4-(2,3,5,6-tetrafluorophenoxy)phenyl)-1H-pyrazolo[3,4-d]pyrimidin-1-yl)cyclohexyl)-1H-pyrrole-2,5-dione], `Nc1ncnc2c1c(-c1ccc(Oc3c(F)c(F)cc(F)c3F)cc1F)nn2[C@H]1CC[C@H](N2C(=O)C=CC2=O)C1` [Compound 37, 1-((1 S,3S)-3-(4-amino-3-(2-fluoro-4-(2,3,5,6-tetrafluorophenoxy)phenyl)-1H-pyrazolo[3,4-d]pyrimidin-1-yl)cyclopentyl)-1H-pyrrole-2,5-dione] is 6-fold lower in IC50: 593 nM for the first, 99 nM for the second. The second is the more potent here.

`Nc1ncnc2c1c(-c1ccc(Oc3c(F)c(F)cc(F)c3F)cc1F)nn2CCCN1C(=O)C=CC1=O` [Compound 38, 1-(3-(4-amino-3-(2-fluoro-4-(2,3,5,6-tetrafluorophenoxy)phenyl)-1H-pyrazolo[3,4-d]pyrimidin-1-yl)propyl)-1H-pyrrole-2,5-dione] and `Nc1ncnc2c1c(-c1ccc(Oc3c(F)c(F)cc(F)c3F)cc1F)nn2CCN1C(=O)C=CC1=O` [Compound 51, 1-(2-(4-amino-3-(2-fluoro-4-(2,3,5,6-tetrafluorophenoxy)phenyl)-1H-pyrazolo[3,4-d]pyrimidin-1-yl)ethyl)-1H-pyrrole-2,5-dione] are within 1.5-fold of each other in IC50: 379 nM for the first, 527 nM for the second.

Compared with `Nc1ncnc2c1c(-c1ccc(Oc3c(F)c(F)cc(F)c3F)cc1F)nn2C1CCC(N2C(=O)CSC2=O)CC1` (stereo not shown) [Compound 40, 3-(4-(4-amino-3-(2-fluoro-4-(2,3,5,6-tetrafluorophenoxy)phenyl)-1H-pyrazolo[3,4-d]pyrimidin-1-yl)cyclohexyl)thiazolidine-2,4-dione], `CC(=O)CC(=O)N1CCCC(n2nc(-c3ccc(Oc4c(F)c(F)cc(F)c4F)cc3F)c3c(N)ncnc32)C1` (stereo not shown) [Compound 44, 1-(3-(4-amino-3-(2-fluoro-4-(2,3,5,6-tetrafluorophenoxy)phenyl)-1H-pyrazolo[3,4-d]pyrimidin-1-yl)piperidin-1-yl)butane-1,3-dione] is 4.4-fold lower in IC50: 1640 nM for the first, 374 nM for the second.

Compared with `NC(=O)/C=C/C(=O)N1CCCC(n2nc(-c3ccc(Oc4c(F)c(F)cc(F)c4F)cc3F)c3c(N)ncnc32)C1` (stereo not shown) [Compound 41, (E)-4-(3-(4-amino-3-(2-fluoro-4-(2,3,5,6-tetrafluorophenoxy)phenyl)-1H-pyrazolo[3,4-d]pyrimidin-1-yl)piperidin-1-yl)-4-oxobut-2-enamide], `CNC(=O)/C=C/C(=O)N1CCCC(n2nc(-c3ccc(Oc4c(F)c(F)cc(F)c4F)cc3F)c3c(N)ncnc32)C1` (stereo not shown) [Compound 42, (E)-4-(3-(4-amino-3-(2-fluoro-4-(2,3,5,6-tetrafluorophenoxy)phenyl)-1H-pyrazolo[3,4-d]pyrimidin-1-yl)piperidin-1-yl)-N-methyl-4-oxobut-2-enamide] is 2.2-fold higher in IC50: 17 nM for the first, 38 nM for the second. The first is the more potent here.

Going from `N=C(N)NC(=O)N1CCCC(n2nc(-c3ccc(Oc4c(F)c(F)cc(F)c4F)cc3F)c3c(N)ncnc32)C1` (stereo not shown) [Compound 43, N-[3-[4-amino-3-[2-fluoro-4-(2,3,5,6-trifluorophenoxy)phenyl]-1H-pyrazolo[3,4-d]pyrimidin-1-yl]piperidine-1-carbonyl] formamidine] to `C=C(CO)C(=O)N1CCCC(n2nc(-c3ccc(Oc4c(F)c(F)cc(F)c4F)cc3F)c3c(N)ncnc32)C1` (stereo not shown) [Compound 50, 1-(3-(4-amino-3-(2-fluoro-4-(2,3,5,6-tetrafluorophenoxy)phenyl)-1H-pyrazolo[3,4-d]pyrimidin-1-yl)piperidin-1-yl)-2-(hydroxymethyl)prop-2-en-1-one], the IC50 falls from 131 nM to 87 nM (1.5-fold).

Compared with `COC(=O)NC(=O)/C=C\C(=O)N1CCCC(n2nc(-c3ccc(Oc4c(F)c(F)cc(F)c4F)cc3F)c3c(N)ncnc32)C1` (stereo not shown) [Compound 47, (Z)-methyl 4-(3-(4-amino-3-(2-fluoro-4-(2,3,5,6-tetrafluorophenoxy)phenyl)-1H-pyrazolo[3,4-d]pyrimidin-1-yl)piperidin-1-yl)-4-oxobut-2-enoylcarbamate], `C/C=C(\C(=O)OC)C(=O)N1CCCC(n2nc(-c3ccc(Oc4c(F)c(F)cc(F)c4F)cc3F)c3c(N)ncnc32)C1` (stereo not shown) [Compound 48, (Z)-methyl 2-(3-(4-amino-3-(2-fluoro-4-(2,3,5,6-tetrafluorophenoxy)phenyl)-1H-pyrazolo[3,4-d]pyrimidin-1-yl)piperidine-1-carbonyl)but-2-enoate] is 160-fold higher in IC50: 6 nM for the first, 964 nM for the second. The first is the more potent here.

`C=C(C#N)C(=O)N1CCCC(n2nc(-c3ccc(Oc4c(F)c(F)cc(F)c4F)cc3F)c3c(N)ncnc32)C1` (stereo not shown) [Compound 49, 2-(3-(4-amino-3-(2-fluoro-4-(2,3,5,6-tetrafluorophenoxy)phenyl)-1H-pyrazolo[3,4-d]pyrimidin-1-yl)piperidine-1-carbonyl)acrylonitrile] and `CNC(=O)C(=O)N1CCCC(n2nc(-c3ccc(Oc4c(F)c(F)cc(F)c4F)cc3F)c3c(N)ncnc32)C1` (stereo not shown) [Compound 57, 2-(3-(4-amino-3-(2-fluoro-4-(2,3,5,6-tetrafluorophenoxy)phenyl)-1H-pyrazolo[3,4-d]pyrimidin-1-yl)piperidin-1-yl)-N-methyl-2-oxoacetamide] are within 1.5-fold of each other in IC50: 509 nM for the first, 692 nM for the second.

`CN/C(=N\C#N)N1CCCC(n2nc(-c3ccc(Oc4c(F)c(F)cc(F)c4F)cc3F)c3c(N)ncnc32)C1` (stereo not shown) [Compound 54, 3-[4-amino-3-[2-fluoro-4-(2,3,5,6-fluorophenoxy)phenyl]-1H-pyrazolo[3,4-d]pyrimidine-1-yl]-N′-cyano-N-methyl-piperidine-1-carboxamidine] and `CN/C(=C\[N+](=O)[O-])N1CCCC(n2nc(-c3ccc(Oc4c(F)c(F)cc(F)c4F)cc3F)c3c(N)ncnc32)C1` (stereo not shown) [Compound 55, 1-[3-[4-amino-3-[2-fluoro-4-(2,3,5,6-three-fluorophenoxy)phenyl]-1H-pyrazolo[3,4-d]pyrimidin-1-yl]-1-piperidinyl]-1-(methylamino)-2-nitro ethylene] are within 1.5-fold of each other in IC50: 1620 nM for the first, 1740 nM for the second.

`CNC(=O)CN1CCCC(n2nc(-c3ccc(Oc4c(F)c(F)cc(F)c4F)cc3F)c3c(N)ncnc32)C1` (stereo not shown) [Compound 56, 2-(3-(4-amino-3-(2-fluoro-4-(2,3,5,6-tetrafluorophenoxy)phenyl)-1H-pyrazolo[3,4-d]pyrimidin-1-yl)piperidin-1-yl)-N-methylacetamide] showed an IC50 of 365 nM.
